Experimental data: patent publication US10414774B2, “Compound useful for altering the levels of bile acids for the treatment of diabetes and cardiometabolc disease” (Merck Sharp & Dohme Corp., priority 2016, dated 2019)
pIC50: −log10 of the molar value.

Target: T1, Human CYP8B1 (Homo sapiens, UniProt Q9UNU6)
T1 sequence (Q9UNU6 1-501): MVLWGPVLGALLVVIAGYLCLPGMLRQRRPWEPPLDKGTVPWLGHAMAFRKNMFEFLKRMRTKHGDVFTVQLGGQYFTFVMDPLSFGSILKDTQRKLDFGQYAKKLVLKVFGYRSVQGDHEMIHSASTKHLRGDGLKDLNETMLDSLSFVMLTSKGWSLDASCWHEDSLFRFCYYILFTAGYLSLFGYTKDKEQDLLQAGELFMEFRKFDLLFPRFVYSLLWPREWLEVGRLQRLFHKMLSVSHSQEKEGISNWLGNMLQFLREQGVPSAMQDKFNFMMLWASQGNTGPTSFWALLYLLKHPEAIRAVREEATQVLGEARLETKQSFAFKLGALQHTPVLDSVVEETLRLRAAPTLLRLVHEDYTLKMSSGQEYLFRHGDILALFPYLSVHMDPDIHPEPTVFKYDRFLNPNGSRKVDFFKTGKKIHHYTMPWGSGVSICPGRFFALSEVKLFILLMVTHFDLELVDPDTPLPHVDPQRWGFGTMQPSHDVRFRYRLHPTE
Assay: Human CYP8B1 Liver Microsome Assay
Conditions: Human CYP8B1 IC50, human liver microsomes; substrate 7a-hydroxy-4-cholesten-3-one, NADPH; RapidFire MS detection of 7α,12α-dihydroxy-4-cholesten-3-one

Row | Compound | pIC50
1 | CC(C)Oc1ccc2c(N3CC[C@H](C(=O)N4CCn5c(nnc5C(F)(F)F)C4)[C@H](C)C3)c(C#N)cnc2c1F [Example 37, 8-fluoro-4-[(3S,4S)-3-methyl-4-{[3-(trifluoromethyl)-5,6-dihydro[1,2,4]triazolo[4,3-a]pyrazin-7(8H)-yl]carbonyl}piperidin-1-yl]-7-(propan-2-yloxy)quinoline-3-carbonitrile] | 9.27
2 | C[C@@H]1CN(c2c(C#N)cnc3cc(OC4CC4)ccc23)CC[C@@H]1C(=O)N1CCn2c(nnc2C(F)(F)F)C1 [Example 38, 7-(cyclopropyloxy)-4-[(3S,4S)-3-methyl-4-{[3-(trifluoromethyl)-5,6-dihydro[1,2,4]triazolo[4,3-a]pyrazin-7(8H)-yl]carbonyl}piperidin-1-yl]quinoline-3-carbonitrile] | 9.52
3 | CCOc1ccc2c(N3CC[C@H](C(=O)N4CCn5c(nnc5C(F)(F)F)C4)[C@H](C)C3)c(C#N)cnc2c1 [Example 39, 7-ethoxy-4-[(3S,4S)-3-methyl-4-{[3-(trifluoromethyl)-5,6-dihydro[1,2,4]triazolo[4,3-a]pyrazin-7(8H)-yl]carbonyl}piperidin-1-yl]quinoline-3-carbonitrile] | 9.15
4 | N#Cc1cnc2cc(Br)ccc2c1N1CCC(C(=O)N2CCn3c(nnc3C(F)(F)F)C2)CC1 [Example 40, 7-bromo-4-(4-{[3-(trifluoromethyl)-5,6-dihydro[1,2,4]triazolo[4,3-a]pyrazin-7(8H)-yl]carbonyl}piperidin-1-yl)quinoline-3-carbonitrile] | 7.92
5 | N#Cc1cnc2c(F)c(Cl)ccc2c1N1CCC(C(=O)N2CCn3c(nnc3C(F)(F)F)C2)CC1 [Example 41, 7-chloro-8-fluoro-4-(4-{[3-(trifluoromethyl)-5,6-dihdyro[1,2,4]triazolo[4,3-a]pyrazin-7(8H)-yl]carbonyl}piperidin-1-yl)quinoline-3-carbonitrile] | 7.37
6 | COc1ccc2c(N3CCC(C(=O)N4CCn5c(nnc5C(F)(F)F)C4)CC3)c(C#N)cnc2c1F [Example 42, 8-fluoro-7-methoxy-4-(4-{[3-(trifluoromethyl)-5,6-dihydro[1,2,4]triazolo[4,3-a]pyrazin-7(8H)-yl]carbonyl}piperidin-1-yl)quinoline-3-carbonitrile] | 7.31
7 | N#Cc1cnc2cc(C(F)(F)F)ccc2c1N1CCC(C(=O)N2CCn3c(nnc3C(F)(F)F)C2)CC1 [Example 43, 7-(trifluoromethyl)-4-(4-{[3-(trifluoromethyl)-5,6-dihydro[1,2,4]triazolo[4,3-a]pyrazin-7(8H)-yl]carbonyl}piperidin-1-yl)quinoline-3-carbonitrile] | 8.20
8 | COc1ccc2c(N3CCC(C(=O)N4CCn5c(nnc5C(F)(F)F)C4)CC3)c(C#N)cnc2c1 [Example 44, 7-methoxy-4-(4-{[3-(trifluoromethyl)-5,6-dihydro[1,2,4]triazolo[4,3-a]pyrazin-7(8H)-yl]carbonyl}piperidin-1-yl)quinoline-3-carbonitrile] | 7.49
9 | Cc1nc2ccc(F)cc2c(N2CCC(C(=O)N3CCn4c(nnc4C(F)(F)F)C3)CC2)c1C#N [Example 45, 6-fluoro-2-methyl-4-(4-(3-(trifluoromethyl)-5,6,7,8-tetrahydro-[1,2,4]triazolo[4,3-a]pyrazine-7-carbonyl)piperidin-1-yl)quinoline-3-carbonitrile] | 5.94
10 | COc1ccc2ncc(C#N)c(N3CCC(C(=O)N4CCn5c(nnc5C(F)(F)F)C4)CC3)c2c1 [Example 46, 6-methoxy-4-(4-(3-(trifluoromethyl)-5,6,7,8-tetrahydro-[1,2,4]triazolo[4,3-a]pyrazine-7-carbonyl)piperidin-1-yl)quinoline-3-carbonitrile] | 7.17
11 | COc1ccc2nc(C)c(C#N)c(N3CCC(C(=O)N4CCn5c(nnc5C(F)(F)F)C4)CC3)c2c1 [Example 47, 6-methoxy-2-methyl-4-(4-(3-(trifluoromethyl)-5,6,7,8-tetrahydro-[1,2,4]triazolo[4,3-a]pyrazin-7-carbonyl)piperidin-1-yl)quinoline-3-carbonitrile] | 6.25
